From patent publication US20210210190A1, “Diagnostic Method” (Amazentis SA, priority 2019, published 2021)
Values joined by “and” are separate entries in the source; they are usually repeats but may differ in a detail not shown here. Equal values may be shown once.

Key:
[1] = Study of pomegranate juice and oral urolithin A: urolithin A glucuronide in dried blood spots (Example 3); assay type: in vivo, human; details: dried blood spot, 24 hours after 500 mg Urolithin A softgel capsule; individual subjects 1-7; listed as UA
Protocol: A study was conducted in seven subjects. At the beginning of the study a sample of capillary blood via a finger prick was taken from each subject and 15-20 uL of whole blood was dried onto a dried blood sample (DBS) filter paper sample card (Whatman, Little Chalfont, Buckinghamshire, UK). A minimum of 2 spots per sampling were collected for each time-point. At T0 i.e. baseline sample, subjects ingested 80 ml pomegranate juice (freshly prepared/). At 24 hours following pomegranate juice intake, a further dried blood spot sample was taken and 15-20 uL of whole blood was dried onto a DBS filter paper card. Following this, subjects ingested 500 mg of Urolithin A in a softgel capsule and then at 48 hours (or 24 hours following UA intake), a further dried blood spot sample was taken and 15-20 uL of whole blood was dried onto DBS filter paper sample card.
This analytical method was developed to analyse whole blood spot samples collected on dry blood spot sample cards (DBS Filter card) in Example 3.
Each dried blood spot was punched from cards using a 6 mm diameter puncher and transferred into a tube. Afterwards 150 μL of methanol containing the internal standard was added. […]
The quantification of UA-glucuronide was performed by column separation with reversed-phase chromatography followed by detection with triple-stage quadrupole MS/MS in the selected reaction monitoring mode.

[2] = Single ascending dose study in healthy elderly subjects: Urolithin A glucuronide in urine (Example 6, Part A); assay type: in vivo, human; details: mean ± standard error
Protocol: A single (Part A) and multiple (Part B) dose study of urolithin A was conducted to evaluate the safety, tolerability, pharmacokinetics and pharmacodynamics profile in healthy elderly subjects.
Part A: The study was a double-blind, randomized, single ascending doses, study in 24 healthy elderly male and female volunteers. Each subject was randomized for two subsequent doses in three cohorts.
1100 mg soft gel capsule containing 250 mg of urolithin A (as described in Example 2 above). Soft gel capsules were blister-packed in bulk, Labelling was in accordance with local regulatory specifications and requirements.
Part A: Single oral dose administration on D1 of each period according to the randomisation. The administration took place around 8:00 am with around 200 mL tap water, in sitting position, and under fasting conditions.
Cohort 1 (8 subjects): 250 mg urolithin A (6 subjects) or placebo (2 subjects) capsule soft gel formulation then 2000 mg urolithin A or placebo capsule soft gel formulation. Cohort 2 (8 subjects): 500 mg urolithin A (6 subjects) or placebo (2 subjects) capsule soft gel formulation. Cohort 3 (8 subjects): 1000 mg urolithin A (6 subjects) or placebo (2 subjects) capsule soft gel formulation.
In Part A of the study, total urine was collected during the following intervals: 0-4 h, 4-8 h, 8-12 h, 12-24 h and 24-36 h post-dose. The collected urine volume of each collection period was carefully measured by weight and recorded in the eCRF, as well as the exact start and stop time of the collection interval. Each fraction of collected urine was homogenized and 2 aliquots of 5 mL per interval were kept and stored below −80° C. Following a protocol amendment to extend the blood sampling scheme from 36 to 96 h post-dose, additional spot urine samples were taken 72 and 96 h post-dose but urine was not collected quantitatively.
The concentrations of Urolithin A and its metabolites in urine was determined using validated LC-MS/MS assays. The limit of quantification (LOQ) was 10 ng/mL for Urolithin A in urine and 50 ng/mL for Urolithin A glucuronide and Urolithin A sulphate in urine.

Urolithin A glucuronide in urine ([2]; 250 mg dose, Predose): 4,114 ± 1,261 ng/mL
Urolithin A glucuronide in urine ([2]; 250 mg dose, T0-T4 h): 8,536 ± 1,394 ng/mL
Urolithin A glucuronide in urine ([2]; 250 mg dose, T4 h-T8 h): 31,617 ± 7,637 ng/mL
Urolithin A glucuronide in urine ([2]; 250 mg dose, T8 h-T12 h): 40,453 ± 9,275 ng/mL
Urolithin A glucuronide in urine ([2]; 250 mg dose, T12 h-T24 h): 62,817 ± 8,454 ng/mL
Urolithin A glucuronide in urine ([2]; 250 mg dose, T24 h-T36 h): 33,962 ± 8,708 ng/mL
Urolithin A glucuronide in urine ([2]; 500 mg dose, Predose): 4,114 ± 1,261 ng/mL
Urolithin A glucuronide in urine ([2]; 500 mg dose, T0-T4 h): 40,167 ± 6,802 ng/mL
Urolithin A glucuronide in urine ([2]; 500 mg dose, T96 spot urine): 8,720 ± 3,113 ng/mL
Urolithin A glucuronide in urine ([2]; 500 mg dose, T4 h-T8 h): 86,758 ± 12,051 ng/mL
Urolithin A glucuronide in urine ([2]; 500 mg dose, T8 h-T12 h): 63,800 ± 9,043 ng/mL
Urolithin A glucuronide in urine ([2]; 500 mg dose, T12 h-T24 h): 81,125 ± 10,792 ng/mL
Urolithin A glucuronide in urine ([2]; 500 mg dose, T24 h-T36 h): 44,242 ± 4,631 ng/mL
Urolithin A glucuronide in urine ([2]; 500 mg dose, T72 h spot urine): 15,706 ± 3,751 ng/mL
Urolithin A glucuronide in urine ([2]; 1000 mg dose, Predose): 4,114 ± 1,261 ng/mL
Urolithin A glucuronide in urine ([2]; 1000 mg dose, T0-T4 h): 70,492 ± 12,094 ng/mL
Urolithin A glucuronide in urine ([2]; 1000 mg dose, T96 spot urine): 16,335 ± 3,897 ng/mL
Urolithin A glucuronide in urine ([2]; 1000 mg dose, T4 h-T8 h): 76,417 ± 10,635 ng/mL
Urolithin A glucuronide in urine ([2]; 1000 mg dose, T8 h-T12 h): 64,967 ± 8,075 ng/mL
Urolithin A glucuronide in urine ([2]; 1000 mg dose, T12 h-T24 h): 107,983 ± 17,683 ng/mL
Urolithin A glucuronide in urine ([2]; 1000 mg dose, T24 h-T36 h): 59,575 ± 9,560 ng/mL
Urolithin A glucuronide in urine ([2]; 1000 mg dose, T72 h spot urine): 29,412 ± 5,717 ng/mL
Urolithin A glucuronide in urine ([2]; 2000 mg dose, Predose): 4,114 ± 1,261 ng/mL
Urolithin A glucuronide in urine ([2]; 2000 mg dose, T0-T4 h): 39,500 ± 6,033 ng/mL
Urolithin A glucuronide in urine ([2]; 2000 mg dose, T96 spot urine): 38,487 ± 12,858 ng/mL
Urolithin A glucuronide in urine ([2]; 2000 mg dose, T4 h-T8 h): 65,317 ± 10,853 ng/mL
Urolithin A glucuronide in urine ([2]; 2000 mg dose, T8 h-T12 h): 50,450 ± 5,793 ng/mL
Urolithin A glucuronide in urine ([2]; 2000 mg dose, T12 h-T24 h): 114,817 ± 12,123 ng/mL
Urolithin A glucuronide in urine ([2]; 2000 mg dose, T24 h-T36 h): 60,533 ± 12,216 ng/mL
Urolithin A glucuronide in urine ([2]; 2000 mg dose, T72 h spot urine): 70,567 ± 17,054 ng/mL
Structure (SMILES): O=c1oc2cc(O)ccc2c2ccc(O)cc12 [Urolithin A]
500 mg single UA dosing 24 h UA levels [1]: 153 ng/mL and 93.0 ng/mL and 98.0 ng/mL and 125 ng/mL and 134 ng/mL and 173 ng/mL
